Consider 5 compounds from US9260468B1, “2,3′-anhydro-2′-deoxy-5-fluorouridine derivatives with cytotoxic activity, a manufacturing process and application” (ADAM MICKIEWICZ UNIVERSITY, priority 2014, dated 2016).

Where “and” joins values, the source holds several entries; their conditions need not be identical. Identical values can stand only once. Like-named read-outs stand apart in the source and are kept apart here.

One series has as its system HeLa (cervical cancer). Nature of the series: Cytotoxicity test with sulphorhodamine B, HeLa line. The format is cell-based. Particulars: for SI, HeLa: SI = IC50 normal cell line (fibroblasts) / IC50 HeLa. The protocol:
(§1) Cytotoxic activity tests were performed using the following cancer cell lines: MCF-7 (breast cancer), HeLa (cervical cancer) A549 (lung cancer) and KB (nasopharynx cancer) and normal cells (human dermal fibroblasts, HDF) obtained from ECACC (European Collection of Cell Cultures).
(§2) Cytotoxicity tests were carried out using a standard procedure with sulphorhodamine B. They involved incubation of the cancer cell lines in the logarithmic growth phase for 72 hours with the compound tested and, subsequently, spectrophotometric determination of the degree of cell growth inhibition using adsorption of a dye (sulphorhodamine B) which binds cellular proteins. The determination was carried out according to a procedure reported in: Vichai, V., Kirtikara, K. Nature Protocols, 2006, 1, 1112.
(§3) Cells of the cell line tested in the logarithmic growth phase were seeded onto 24-well plates in a quantity of 20.000 cells/2 mL of the growth medium per well and, subsequently, incubated in an incubator at 37° C., in the 5% CO2 atmosphere for 24 hours.
(§4) Solutions of the test compounds were prepared in DMSO in the following concentrations: 0.05; 0.1; 0.5; 1; 5; 10; 50; 100; 500 μM.
(§5) The cells of the lines tested were treated with the solutions of the test compounds in a laminar-flow chamber which ensured sterile working conditions according to the following procedure: the first three wells were used as a control: they contained 20 μL of DMSO only; successive solutions of the test compound were added to subsequent wells (20 μL), starting with the lowest concentration (three wells for each concentration level). Subsequently, the plates were placed in an incubator at 37° C. for 72 hours. After the end of incubation, the adhered cells were fixed by adding 500 μL of cold (4° C.) 50% trichloroacetic acid (TCA) and incubated at 4° C. for 1 hour. Subsequently, each well was rinsed with sterile water and dried. The rinsing was repeated five times. The fixed cells were stained for 30 minutes by adding 500 μL of 0.4% dye solution (sulphorhodamine B) dissolved in 1% acetic acid. Any unbound dye was removed by decanting it from the plate, and the cells were washed 4 times with 1% acetic acid. Subsequently, the plates were dried in air for approx. 5 minutes. Bounded dye was dissolved by adding 1500 μL of 10 mM Tris-base buffer (trishydroxymethylaminomethane) to each well and shaken using an orbital shaker for 5 minutes. Subsequently, 200 μL of solution from each well was transferred to each of two wells on a new 96-well plate and absorption of the solutions was determined spectrophotometrically at a wavelength of 490-530 nm using a plate reader.
(§6) Cytotoxicity tests for the other compounds and cell lines were performed following an identical procedure.
(§7) The MCF-7 line was grown in Dulbecco's Modified Eagle's Medium (DME) from Sigma (cat. no. D5796), while the HeLa, A549 and KB lines were grown in RPMI-1640 Medium from Sigma (cat. no. R8758).
(§8) IC50 values, being concentration of a compound needed to obtain 50% inhibition of cell growth, were determined for all the derivatives tested.

The next series concerns KB (nasopharynx cancer). Description: Cytotoxicity test with sulphorhodamine B, KB line. The conditions noted are these: for SI, KB: SI = IC50 normal cell line (fibroblasts) / IC50 KB. It counts as cell-based. The method, then:
as §1, §2, §3, §4, §5, §6, §7, §8

For a further series, the system named is MCF-7 (breast cancer). Nature of the series: Cytotoxicity test with sulphorhodamine B, MCF-7 line. The format is cell-based. The conditions noted are these: for SI, MCF-7: SI = IC50 normal cell line (fibroblasts) / IC50 MCF-7. The method, then:
as §1, §2, §3, §4, §5, §6, §7, §8

The nature of series [1]: Cytotoxicity test with sulphorhodamine B, normal fibroblasts. It counts as cell-based. Particulars: human, normal human dermal fibroblasts (HDF), normal cells, 72 hours incubation, read-out: Cytotoxic activity, IC50, Fibroblasts (HDF). The method, then: as §1, §2, §3
Solutions of the test compounds were prepared in DMSO in the following concentrations: 0.05; 0.1; 0.5; 1; 5; 10; 50; 100; 500 μM. […]

A further series relates to HBV. Particulars: literature (Srivastav et al. 2010); cited from earlier work.
For another series, the system named is Huh-7 line. The conditions noted are these: literature (Srivastav et al. 2010); cited from earlier work.
In the next series the test system is A549 (lung cancer). Nature of the series: Cytotoxicity test with sulphorhodamine B, A549 line. The format is cell-based. Particulars: for IC50: Homo sapiens. The method, then: as §1, §2, §3, §4, §5, §6, §7, §8
The mark [2] stands for this setting: Homo sapiens, HeLa, 72 h, read-out: Cytotoxic activity, IC50, HeLa (cervical cancer).
[3] abbreviates: Homo sapiens, HeLa, read-out: Cytotoxic activity class, HeLa (cervical cancer).
Where [4] appears, read: 72 h, read-out: Cytotoxic activity, IC50, KB (nasopharynx cancer).
[5] abbreviates: read-out: Cytotoxic activity class, KB (nasopharynx cancer).
The mark [6] stands for this setting: Homo sapiens, MCF7, 72 h, read-out: Cytotoxic activity, IC50, MCF-7 (breast cancer).
Where [7] appears, read: Homo sapiens, MCF7, read-out: Cytotoxic activity class, MCF-7 (breast cancer).
Setting [8] is: 72 hours incubation, sulphorhodamine B, average of three determinations.
Where [9] appears, read: class A/MA/NA by IC50 in μg/mL, read-out: Cytotoxic activity class, KB (nasopharynx cancer).
The mark [10] stands for this setting: Homo sapiens, HeLa, class A/MA/NA by IC50 in μg/mL, read-out: Cytotoxic activity class, HeLa (cervical cancer).
Setting [11] is: Homo sapiens, MCF7, class A/MA/NA by IC50 in μg/mL, read-out: Cytotoxic activity class, MCF-7 (breast cancer).
Where [12] appears, read: A549, class A/MA/NA by IC50 in μg/mL, read-out: Cytotoxic activity class, A549 (lung cancer).

For the compound `O=c1nc2n(cc1F)C1CC(O2)C(COP(=O)(NCCF)Oc2ccc(Cl)cc2)O1` (centres unmarked) [MFEAdFU], the IC50 in the series on HeLa (cervical cancer) (setting [2]) was 16 µg/mL and 34.5 µM; with HeLa (cervical cancer) (setting [3]), 4 to 30 mg/L; in the series on KB (nasopharynx cancer) (setting [4]), 12.2 µg/mL and 26.3 µM; with KB (nasopharynx cancer) (setting [5]), 4 to 30 mg/L; in the series on MCF-7 (breast cancer) (setting [6]), 11.8 µg/mL and 25.4 µM; in the series on MCF-7 (breast cancer) (setting [7]) it was 4 to 30 mg/L. In addition, the “SI, HeLa” value in the series on HeLa (cervical cancer) worked out at 2.7. Also, the “SI, KB” value in the series on KB (nasopharynx cancer) was found to be 3.5. In the series on MCF-7 (breast cancer), the “SI, MCF-7” value is 3.7. In addition, the IC50 at 72 h in series [1] is 43.1 µg/mL and 92.9 µM.

With `O=c1nc2n(cc1F)[C@H]1C[C@@H](O2)[C@@H](CO)O1` [2,3′-anhydro-2′-deoxy-5-fluorouridine], the “antiviral activity against HBV” value in the series with HBV is “weak antiviral activity”. In addition, in the series with HeLa (cervical cancer) (setting [8]), the “Cytotoxic activity, IC50, HeLa (cervical cancer)” value is 11.0 mg/L. In addition, the IC50 was 48.2 µM in the series with HeLa (cervical cancer) (72 hours incubation, sulphorhodamine B, read-out: Cytotoxic activity, IC50, HeLa (cervical cancer)); 48.2 µM in the series with KB (nasopharynx cancer) (72 hours incubation, sulphorhodamine B, read-out: Cytotoxic activity, IC50, KB (nasopharynx cancer)); 4 to 30 mg/L in the series on KB (nasopharynx cancer) (setting [9]); 16.2 µM in the series on MCF-7 (breast cancer) (72 hours incubation, sulphorhodamine B, read-out: Cytotoxic activity, IC50, MCF-7 (breast cancer)). The “Cytotoxic activity class, HeLa (cervical cancer)” value in the series on HeLa (cervical cancer) (class A/MA/NA by IC50 in μg/mL) is listed as “MA (IC50 range of 4-30 μg/mL are considered medium active)”. For the same compound, the “Cytotoxic activity, IC50, KB (nasopharynx cancer)” value in the series on KB (nasopharynx cancer) (setting [8]) came out at 11.0 mg/L. Moreover, the “Cytotoxic activity, IC50, MCF-7 (breast cancer)” value in the series on MCF-7 (breast cancer) (setting [8]) amounted to 3.7 mg/L. Moreover, in the series with MCF-7 (breast cancer) (class A/MA/NA by IC50 in μg/mL), the “Cytotoxic activity class, MCF-7 (breast cancer)” value is reported as “A (IC50<4 μg/mL are generally assumed as active)”. Also, the “cytotoxic activity against the Huh-7 line, IC50” value in the series with Huh-7 line is over 200 mg/L.

For the compound `O=c1[nH]cc(F)c(=O)[nH]1` [5-fluorouracil, reference compound], the IC50 in the series on HeLa (cervical cancer) (setting [10]), in the series with KB (nasopharynx cancer) (setting [9]), in the series with MCF-7 (breast cancer) (setting [11]) and in the series on A549 (lung cancer) (setting [12]) was under 4 mg/L throughout.

Take `O=c1nc2n(cc1F)C1CC(O2)C(COP(=O)(NCC(F)(F)F)Oc2ccc(Cl)cc2)O1` (centres unmarked) [FEAdFU, 2,3′-anhydro-2′-deoxy-5-fluorouridine 5′-[N-(2,2,2-trifluoroethyl)-O-(4-chlorophenyl)]phosphate]: the IC50 is 360 nM and 0.18 µg/mL with HeLa (cervical cancer) (setting [2]); under 4 mg/L with HeLa (cervical cancer) (setting [3]); 400 nM and 0.2 µg/mL in the series on KB (nasopharynx cancer) (setting [4]); under 4 mg/L in the series on KB (nasopharynx cancer) (setting [5]); 240 nM and 0.12 µg/mL in the series on MCF-7 (breast cancer) (setting [6]); under 4 mg/L with MCF-7 (breast cancer) (setting [7]). Moreover, the IC50 was 400 nM and 0.2 µg/mL in the series on A549 (lung cancer) (A549, 72 h, read-out: Cytotoxic activity, IC50, A549 (lung cancer)); under 4 mg/L with A549 (lung cancer) (A549, read-out: Cytotoxic activity class, A549 (lung cancer)). In addition, the “SI, HeLa” value in the series with HeLa (cervical cancer) is 33 and 33.3. Also, the “fold higher cytotoxicity than 5FU, HeLa” value in the series on HeLa (cervical cancer) (versus 5FU) is on record as “more than 58 fold”. Further, the “fold higher cytotoxicity than 5FdU, HeLa” value in the series with HeLa (cervical cancer) (versus 5FdU) is reported as “more than 36 fold”. In addition, the “fold higher cytotoxicity than AdFU, HeLa” value with HeLa (cervical cancer) (versus AdFU) is given as “more than 133 fold”. In addition, in the series with KB (nasopharynx cancer), the “SI, KB” value is listed as 30. For the same compound, the “fold higher cytotoxicity than 5FU, KB” value with KB (nasopharynx cancer) (versus 5FU) is on record as “more than 55 fold”. For the same compound, in the series with KB (nasopharynx cancer) (versus 5FdU), the “fold higher cytotoxicity than 5FdU, KB” value is given as “more than 34 fold”. Also, the “fold higher cytotoxicity than AdFU, KB” value in the series on KB (nasopharynx cancer) (versus AdFU) turned out to be 120 fold. For the same compound, in the series on MCF-7 (breast cancer), the “SI, MCF-7” value is on record as 50. In addition, in the series on MCF-7 (breast cancer) (versus 5FU), the “fold higher activity than 5FU, MCF-7” value is given as “more than 75 fold”. For the same compound, the “fold higher activity than 5FdU, MCF-7” value in the series with MCF-7 (breast cancer) (versus 5FdU) was “more than 47 fold”. In addition, the “fold higher activity than AdFU, MCF-7” value in the series on MCF-7 (breast cancer) (versus AdFU) is listed as 67 fold. Also, the “SI, A549” value in the series on A549 (lung cancer) (SI = IC50 normal cell line (fibroblasts) / IC50 A549) is reported as 30. Also, the “fold higher cytotoxicity than 5FU, A549” value in the series with A549 (lung cancer) (versus 5FU) is “more than 53 fold”. In addition, the “fold higher cytotoxicity than 5FdU, A549” value in the series on A549 (lung cancer) (versus 5FdU) is on record as “more than 33 fold”. Also, the IC50 at 72 h in series [1] is 6 µg/mL and 12 µM.

In the case of `O=c1[nH]c(=O)n([C@H]2C[C@H](O)[C@@H](CO)O2)cc1F` [5-fluoro-2′-deoxyuridine, reference compound], the IC50 with HeLa (cervical cancer) (setting [10]), in the series on KB (nasopharynx cancer) (setting [9]), in the series on MCF-7 (breast cancer) (setting [11]) and in the series on A549 (lung cancer) (setting [12]) was under 4 mg/L each time.
